Measured values published in ChEMBL document CHEMBL6109125, “A New Protractor Potentiates Glucagon-Like Peptide 1 with Slow-Release Depot and Long-Term Action” (J Med Chem, 2025).
pEC50: −log10 of the molar value.

Key:
Assay type in all cases: functional, cell-based
Details in all cases: for pEC50: read-out: EC50
[1] = target: T1, Glucagon-like peptide 1 receptor (Homo sapiens, UniProt P43220); assay: Agonist activity at GLP-1R (unknown origin) expressed in HEK293 cells co-expressing CRE-Luc assessed as increase in intracellular cAMP accumulation by luciferase based assay
[2] = target: T1, Glucagon-like peptide 1 receptor; assay: Agonist activity at GLP-1R (unknown origin) expressed in HEK293 cells co-expressing CRE-Luc assessed as increase in intracellular cAMP accumulation in presence of 2% HSA by luciferase based assay
[3] = target: T1, Glucagon-like peptide 1 receptor; assay: Agonist activity at GLP-1R (unknown origin) expressed in HEK293 cells co-expressing CRE-Luc assessed as increase in intracellular cAMP accumulation in presence of 10% FBS by luciferase based assay

T1 sequence (P43220 whole entry): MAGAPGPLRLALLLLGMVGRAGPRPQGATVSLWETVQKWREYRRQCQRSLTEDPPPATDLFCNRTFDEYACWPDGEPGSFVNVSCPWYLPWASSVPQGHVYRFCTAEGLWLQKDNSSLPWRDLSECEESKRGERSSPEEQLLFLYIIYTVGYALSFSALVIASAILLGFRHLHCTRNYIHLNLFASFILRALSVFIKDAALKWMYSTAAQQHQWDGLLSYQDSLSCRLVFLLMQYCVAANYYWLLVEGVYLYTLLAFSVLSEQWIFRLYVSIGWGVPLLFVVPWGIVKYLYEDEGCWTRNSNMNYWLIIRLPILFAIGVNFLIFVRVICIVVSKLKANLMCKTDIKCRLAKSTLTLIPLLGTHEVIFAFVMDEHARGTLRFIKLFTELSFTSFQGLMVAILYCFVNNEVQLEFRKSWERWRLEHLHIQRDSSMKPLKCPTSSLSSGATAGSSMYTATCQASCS

`CCOc1ccc(Nc2ccc(/C(=C3C=C/C(=[N+](\CC)Cc4cccc(S(=O)(=O)[O-])c4)C=C/3C)c3ccc(N(CC)Cc4cccc(S(=O)(=O)NCCCCCC(=O)N[C@@H](CS(=O)(=O)O)C(=O)N[C@@H](CS(=O)(=O)O)C(=O)NCCCC[C@H](NC(=O)[C@H](C)NC(=O)[C@H](C)NC(=O)[C@H](CCC(N)=O)NC(=O)CNC(=O)[C@H](CCC(=O)O)NC(=O)[C@H](CC(C)C)NC(=O)[C@H](Cc5ccc(O)cc5)NC(=O)[C@H](CO)NC(=O)[C@H](CO)NC(=O)[C@@H](NC(=O)[C@H](CC(=O)O)NC(=O)[C@H](CO)NC(=O)[C@@H](NC(=O)[C@H](Cc5ccccc5)NC(=O)[C@@H](NC(=O)CNC(=O)[C@H](CCC(=O)O)NC(=O)C(C)(C)NC(=O)[C@@H](N)Cc5c[nH]cn5)[C@@H](C)O)[C@@H](C)O)C(C)C)C(=O)N[C@@H](CCC(=O)O)C(=O)N[C@@H](Cc5ccccc5)C(=O)N[C@H](C(=O)N[C@@H](C)C(=O)N[C@@H](Cc5c[nH]c6ccccc56)C(=O)N[C@@H](CC(C)C)C(=O)N[C@H](C(=O)N[C@@H](CCCNC(=N)N)C(=O)NCC(=O)N[C@@H](CCCNC(=N)N)C(=O)NCC(=O)O)C(C)C)[C@@H](C)CC)c4)cc3C)cc2)cc1` was tested, and the pEC50 [1] was 11.78, the pEC50 [2] was 11.15 and the pEC50 [3] was 11.16.

`CCOc1ccc(Nc2ccc(/C(=C3C=C/C(=[N+](\CC)Cc4cccc(S(=O)(=O)[O-])c4)C=C/3C)c3ccc(N(CC)Cc4cccc(S(=O)(=O)NCCCCCC(=O)N[C@@H](CCC(=O)NCCCC[C@H](NC(=O)[C@H](C)NC(=O)[C@H](C)NC(=O)[C@H](CCC(N)=O)NC(=O)CNC(=O)[C@H](CCC(=O)O)NC(=O)[C@H](CC(C)C)NC(=O)[C@H](Cc5ccc(O)cc5)NC(=O)[C@H](CO)NC(=O)[C@H](CO)NC(=O)[C@@H](NC(=O)[C@H](CC(=O)O)NC(=O)[C@H](CO)NC(=O)[C@@H](NC(=O)[C@H](Cc5ccccc5)NC(=O)[C@@H](NC(=O)CNC(=O)[C@H](CCC(=O)O)NC(=O)C(C)(C)NC(=O)[C@@H](N)Cc5c[nH]cn5)[C@@H](C)O)[C@@H](C)O)C(C)C)C(=O)N[C@@H](CCC(=O)O)C(=O)N[C@@H](Cc5ccccc5)C(=O)N[C@H](C(=O)N[C@@H](C)C(=O)N[C@@H](Cc5c[nH]c6ccccc56)C(=O)N[C@@H](CC(C)C)C(=O)N[C@H](C(=O)N[C@@H](CCCNC(=N)N)C(=O)NCC(=O)N[C@@H](CCCNC(=N)N)C(=O)NCC(=O)O)C(C)C)[C@@H](C)CC)C(=O)O)c4)cc3C)cc2)cc1` was tested, and the pEC50 [1] was 11.93, the pEC50 [2] was 11.04 and the pEC50 [3] was 11.53.

For `CC[C@H](C)[C@H](NC(=O)[C@H](Cc1ccccc1)NC(=O)[C@H](CCC(=O)O)NC(=O)[C@H](CCCCN)NC(=O)[C@H](C)NC(=O)[C@H](C)NC(=O)[C@H](CCC(N)=O)NC(=O)CNC(=O)[C@H](CCC(=O)O)NC(=O)[C@H](CC(C)C)NC(=O)[C@H](Cc1ccc(O)cc1)NC(=O)[C@H](CO)NC(=O)[C@H](CO)NC(=O)[C@@H](NC(=O)[C@H](CC(=O)O)NC(=O)[C@H](CO)NC(=O)[C@@H](NC(=O)[C@H](Cc1ccccc1)NC(=O)[C@@H](NC(=O)CNC(=O)[C@@H](N)CCC(=O)O)[C@@H](C)O)[C@@H](C)O)C(C)C)C(=O)N[C@@H](C)C(=O)N[C@@H](Cc1c[nH]c2ccccc12)C(=O)N[C@@H](CC(C)C)C(=O)N[C@H](C(=O)N[C@@H](CCCNC(=N)N)C(=O)NCC(=O)N[C@@H](CCCNC(=N)N)C(=O)NCC(N)=O)C(C)C`, the EC50 ([1]; hek293) was “No_effect”, the EC50 ([2]; hek293) was “No_effect” and the EC50 ([3]; hek293) was “No_effect”.

For `CCOc1ccc(Nc2ccc(/C(=C3C=C/C(=[N+](\CC)Cc4cccc(S(=O)(=O)[O-])c4)C=C/3C)c3ccc(N(CC)Cc4cccc(S(=O)(=O)NCCCCCC(=O)N[C@@H](CS(=O)(=O)O)C(=O)NCCOCCOCC(=O)NCCCC[C@H](NC(=O)[C@H](C)NC(=O)[C@H](C)NC(=O)[C@H](CCC(N)=O)NC(=O)CNC(=O)[C@H](CCC(=O)O)NC(=O)[C@H](CC(C)C)NC(=O)[C@H](Cc5ccc(O)cc5)NC(=O)[C@H](CO)NC(=O)[C@H](CO)NC(=O)[C@@H](NC(=O)[C@H](CC(=O)O)NC(=O)[C@H](CO)NC(=O)[C@@H](NC(=O)[C@H](Cc5ccccc5)NC(=O)[C@@H](NC(=O)CNC(=O)[C@H](CCC(=O)O)NC(=O)C(C)(C)NC(=O)[C@@H](N)Cc5c[nH]cn5)[C@@H](C)O)[C@@H](C)O)C(C)C)C(=O)N[C@@H](CCC(=O)O)C(=O)N[C@@H](Cc5ccccc5)C(=O)N[C@H](C(=O)N[C@@H](C)C(=O)N[C@@H](Cc5c[nH]c6ccccc56)C(=O)N[C@@H](CC(C)C)C(=O)N[C@H](C(=O)N[C@@H](CCCNC(=N)N)C(=O)NCC(=O)N[C@@H](CCCNC(=N)N)C(=O)NCC(=O)O)C(C)C)[C@@H](C)CC)c4)cc3C)cc2)cc1`, the pEC50 [1] was 11.95, the pEC50 [2] was 11.37 and the pEC50 [3] was 11.94.

`CCOc1ccc(Nc2ccc(/C(=C3C=C/C(=[N+](\CC)Cc4cccc(S(=O)(=O)[O-])c4)C=C/3C)c3ccc(N(CC)Cc4cccc(S(=O)(=O)NCCCCCC(=O)NCCOCCOCCOCCOCCOCCOCCOCCOCCC(=O)NCCCC[C@H](NC(=O)[C@H](C)NC(=O)[C@H](C)NC(=O)[C@H](CCC(N)=O)NC(=O)CNC(=O)[C@H](CCC(=O)O)NC(=O)[C@H](CC(C)C)NC(=O)[C@H](Cc5ccc(O)cc5)NC(=O)[C@H](CO)NC(=O)[C@H](CO)NC(=O)[C@@H](NC(=O)[C@H](CC(=O)O)NC(=O)[C@H](CO)NC(=O)[C@@H](NC(=O)[C@H](Cc5ccccc5)NC(=O)[C@@H](NC(=O)CNC(=O)[C@H](CCC(=O)O)NC(=O)C(C)(C)NC(=O)[C@@H](N)Cc5c[nH]cn5)[C@@H](C)O)[C@@H](C)O)C(C)C)C(=O)N[C@@H](CCC(=O)O)C(=O)N[C@@H](Cc5ccccc5)C(=O)N[C@H](C(=O)N[C@@H](C)C(=O)N[C@@H](Cc5c[nH]c6ccccc56)C(=O)N[C@@H](CC(C)C)C(=O)N[C@H](C(=O)N[C@@H](CCCNC(=N)N)C(=O)NCC(=O)N[C@@H](CCCNC(=N)N)C(=O)NCC(=O)O)C(C)C)[C@@H](C)CC)c4)cc3C)cc2)cc1` showed a pEC50 [1] of 12.80, a pEC50 [2] of 11.61 and a pEC50 [3] of 12.03.

`CCOc1ccc(Nc2ccc(/C(=C3C=C/C(=[N+](\CC)Cc4cccc(S(=O)(=O)[O-])c4)C=C/3C)c3ccc(N(CC)Cc4cccc(S(=O)(=O)NCCCCCC(=O)NCCOCCOCC(=O)NCCOCCOCC(=O)NCCCC[C@H](NC(=O)[C@H](C)NC(=O)[C@H](C)NC(=O)[C@H](CCC(N)=O)NC(=O)CNC(=O)[C@H](CCC(=O)O)NC(=O)[C@H](CC(C)C)NC(=O)[C@H](Cc5ccc(O)cc5)NC(=O)[C@H](CO)NC(=O)[C@H](CO)NC(=O)[C@@H](NC(=O)[C@H](CC(=O)O)NC(=O)[C@H](CO)NC(=O)[C@@H](NC(=O)[C@H](Cc5ccccc5)NC(=O)[C@@H](NC(=O)CNC(=O)[C@H](CCC(=O)O)NC(=O)C(C)(C)NC(=O)[C@@H](N)Cc5c[nH]cn5)[C@@H](C)O)[C@@H](C)O)C(C)C)C(=O)N[C@@H](CCC(=O)O)C(=O)N[C@@H](Cc5ccccc5)C(=O)N[C@H](C(=O)N[C@@H](C)C(=O)N[C@@H](Cc5c[nH]c6ccccc56)C(=O)N[C@@H](CC(C)C)C(=O)N[C@H](C(=O)N[C@@H](CCCNC(=N)N)C(=O)NCC(=O)N[C@@H](CCCNC(=N)N)C(=O)NCC(=O)O)C(C)C)[C@@H](C)CC)c4)cc3C)cc2)cc1` showed a pEC50 [1] of 12.10, a pEC50 [2] of 11.40 and a pEC50 [3] of 11.53.

Compound `CCOc1ccc(Nc2ccc(/C(=C3C=C/C(=[N+](\CC)Cc4ccc(S(=O)(=O)[O-])cc4)C=C/3C)c3ccc(N(CC)Cc4cccc(S(=O)(=O)NCCCCCC(=O)NCc5ccc(C(=O)NCCCC[C@H](NC(=O)[C@H](C)NC(=O)[C@H](C)NC(=O)[C@H](CCC(N)=O)NC(=O)CNC(=O)[C@H](CCC(=O)O)NC(=O)[C@H](CC(C)C)NC(=O)[C@H](Cc6ccc(O)cc6)NC(=O)[C@H](CO)NC(=O)[C@H](CO)NC(=O)[C@@H](NC(=O)[C@H](CC(=O)O)NC(=O)[C@H](CO)NC(=O)[C@@H](NC(=O)[C@H](Cc6ccccc6)NC(=O)[C@@H](NC(=O)CNC(=O)[C@H](CCC(=O)O)NC(=O)C(C)(C)NC(=O)[C@@H](N)Cc6c[nH]cn6)[C@@H](C)O)[C@@H](C)O)C(C)C)C(=O)N[C@@H](CCC(=O)O)C(=O)N[C@@H](Cc6ccccc6)C(=O)N[C@H](C(=O)N[C@@H](C)C(=O)N[C@@H](Cc6c[nH]c7ccccc67)C(=O)N[C@@H](CC(C)C)C(=O)N[C@H](C(=O)N[C@@H](CCCNC(=N)N)C(=O)NCC(=O)N[C@@H](CCCNC(=N)N)C(=O)NCC(=O)O)C(C)C)[C@@H](C)CC)cc5)c4)cc3C)cc2)cc1` has a pEC50 [1] of 11.97, a pEC50 [2] of 11.49 and a pEC50 [3] of 11.38.

For `CCOc1ccc(Nc2ccc(/C(=C3C=C/C(=[N+](\CC)Cc4cccc(S(=O)(=O)[O-])c4)C=C/3C)c3ccc(N(CC)Cc4cccc(S(=O)(=O)NCCCCCC(=O)NCCOCCOCC(=O)NCCOCCOCC(=O)NCCOCCOCC(=O)NCCCC[C@H](NC(=O)[C@H](C)NC(=O)[C@H](C)NC(=O)[C@H](CCC(N)=O)NC(=O)CNC(=O)[C@H](CCC(=O)O)NC(=O)[C@H](CC(C)C)NC(=O)[C@H](Cc5ccc(O)cc5)NC(=O)[C@H](CO)NC(=O)[C@H](CO)NC(=O)[C@@H](NC(=O)[C@H](CC(=O)O)NC(=O)[C@H](CO)NC(=O)[C@@H](NC(=O)[C@H](Cc5ccccc5)NC(=O)[C@@H](NC(=O)CNC(=O)[C@H](CCC(=O)O)NC(=O)C(C)(C)NC(=O)[C@@H](N)Cc5c[nH]cn5)[C@@H](C)O)[C@@H](C)O)C(C)C)C(=O)N[C@@H](CCC(=O)O)C(=O)N[C@@H](Cc5ccccc5)C(=O)N[C@H](C(=O)N[C@@H](C)C(=O)N[C@@H](Cc5c[nH]c6ccccc56)C(=O)N[C@@H](CC(C)C)C(=O)N[C@H](C(=O)N[C@@H](CCCNC(=N)N)C(=O)NCC(=O)N[C@@H](CCCNC(=N)N)C(=O)NCC(=O)O)C(C)C)[C@@H](C)CC)c4)cc3C)cc2)cc1`, the pEC50 [1] was 12.08, the pEC50 [2] was 11.37 and the pEC50 [3] was 11.84.
